Where two headings read alike, the source gives them in different places.
What was measured:
PBR = biological target: T1, PBR (Rattus norvegicus, UniProt P16257); assay: In-house PBR binding assay, [3H]PK11195, rat heart mitochondrial membrane
T1 construct: containing the enriched mitochondria membrane preparation (25 μg of protein); from tissue; host or cells: Sprague Dawley rat heart, enriched mitochondrial membrane preparation
Protocol: Hearts obtained from 3 Sprague Dawley rats were homogenized in 20 volumes of ice-cold 50 mM Tris-HCl, pH 7.5. After two centrifugations at 1500 g for 10 minutes at 4° C., the supernatant was centrifuged at 48000 g for 20 minutes at 4° C. The resulting pellet was resuspended in 50 mM Tris-HCl pH 7.5 and protein concentration was estimated by the Bradford colorimetric staining method using BSA as the standard. […] In parallel, non-specific binding was measured with the presence of 20 μM cold PK11195. Samples were distributed onto 96-well GF/B filtration plates and incubated for 60 minutes at 25° C. and then washed once with PBR-binding buffer.

MES-SA/DX5 = assay: MTT growth inhibitory assay, MES-SA/DX5; format: cell-based, human; conditions: 72 hours
Protocol: (§1) Growth inhibitory activity of TLN-4601 (Compound 1) and other dibenzodiazepinone analogs was evaluated on a panel of 4 human tumor cell lines: the human uterine sarcoma MES-SA and its doxorubicin-resistant P-glycoprotein over-expressing variant, MES-SA/DX5 as well as non-aggressive and highly aggressive human breast cell lines, MCF-7 and MDA-MB-231, respectively. These four cell lines were obtained from the American Type Culture Collection (Manassas, Va.) and cultured in RPMI plus 10% fetal bovine serum (FBS) and maintained at 37° C. with 5% CO2.
(§2) Exponentially growing cells (5,000 cells per well time; cell number determined with a hemocytometer) were seeded in 96-well flat-bottom plates and allowed to grow overnight. Cells were then incubated for 72 hours with three different concentrations of TLN-4601 or analogs: 30, 10, and 3 μM. The in vitro growth inhibitory activity was determined by a commercial MTT assay. All measurements were done in quadruplicate and each experiment was performed 2-3 times. The lower the value, the more cytotoxic is the compound.

MES-SA = assay: MTT growth inhibitory assay, MES-SA; format: cell-based, human; conditions: 72 hours
Protocol: as §1, §2

MDA-MB-231 = assay: MTT growth inhibitory assay, MDA-MB-231; format: cell-based, human; conditions: 72 hours
Protocol: as §1, §2

MCF-7 = assay: MTT growth inhibitory assay, MCF-7; format: cell-based, human; conditions: 72 hours
Protocol: as §1, §2

SRBC = assay: Hemolysis of SRBC; format: cell-based
U87 parental = assay: Caspase-3 activity, U87 parental cells; format: cell-based, human; conditions: 18 h, serum-free medium
Protocol: Firstly, cells (U87 parental, U87 transfected with EGFR-WT, and U87 transfected with mutated EGFR VIII) were plated in 6 well plates in DMEM containing 10% FBS. The following day, the plated cells were treated with increasing concentrations of Compound 1 (TLN-4601) in serum-free medium. After an 18 h incubation period in the presence of Compound 1, the treated cells were measured for caspase-3 activity using a commercial kit.

[1] = tested on: 60 different human tumor cell lines; assay: NCI in vitro screening, 60 human tumor cell lines; format: cell-based; conditions: 60 cell lines
From the text: (§3) A study measuring the in vitro cytotoxic activity of Compound 1 was first performed by the NCI (National Cancer Institute, U.S. National Institutes of Health, Bethesda, Md., USA) against a panel of human cancer cell lines. This screen utilizes 60 different human tumor cell lines, representing cancers of the blood, skin, lung, colon, brain, ovary, breast, prostate, and kidney. Further information regarding the NCI panel of human cancer lines can be obtained by following the links at the NCI world-wide website of the National Cancer Institute. The compound was sent and tested on three occasions (Mar. 31, 2003; Dec. 1, 2003; Mar. 27, 2007).

[2] = tested on: colon carcinoma tumor cell lines; assay: NCI panel, colon carcinoma; format: cell-based; conditions: Homo sapiens; read-out: GI50 range, colon carcinoma
From the text: as §3

[3] = TLN-4601 concentrations in plasma and tissues of rats with C6 orthotopic brain tumors; format: in vivo; conditions: rat; for concentration at 60 min: CIV for 60 min
Protocol: (R)-1-(2-chlorophenyl)-[…]N-(1-methyl-propyl)-3-isoquinoline carboxamide (R N-desmethyl PK11195), the precursor for the radioisotope-labeled (R)-PK11195, was purchased from ABX (Radeburg, Germany). The synthesis of ^11C-(R)-PK11195 was accomplished by a modification of the method of Camsonne et al. (J. Label. Compd. Radiopharm., 21: 985-991, 1984). In vivo PET studies were performed 14 days post tumor implantation. PET imaging studies were performed while the animals were anesthetized and placed in the supine position on the bed and at the center of the FOV of the CTI Concorde R4 microPET scanner (Siemens/CTI Concorde, Knoxville, Tenn.). Each dynamic PET study lasted 60 min and was initiated with an IV bolus administration of 11C-PK11195 (7.1-12.7 MBq) radioligand via the tail vein. Receptor occupancy studies were performed by acquisition of 11C-PK11195 images prior to and during TLN-4601 treatment over 60 minutes. TLN-4601 was administered by a bolus IV infusion (30 mg/kg) followed by continuous IV infusion (5 mg/h/kg) lasting through the dynamic scan. Attenuation correction factors, for each 6 rats, were determined using a 10 minute 57 Co transmission scan acquired immediately prior to the dynamic scan. In addition, all images were scatter corrected.
Following completion of in vivo studies, animals were sacrificed by anesthetic overdose and decapitated. Brain, tumor, and liver were snap-frozen in liquid nitrogen and stored frozen (−70° C.±10° C.). For blood samples, each blood sample was collected into a K2-EDTA tube and kept on wet ice for a maximum of 30 minutes. Blood samples were centrifuged under refrigeration (2 to 8° C.) for 10 minutes at 1,500 g (RCF). A volume of 25 μL of aqueous 4% w/v L-ascorbic acid was added to a volume of 225 μL of rat plasma in a clean tube, and the samples were thoroughly mixed by inversion. A volume of 125 uL of the resulting mixture was transferred to a separate tube for bioanalysis, while the remaining mixture was maintained as a backup, and both the bioanalysis and back-up portions were frozen on dry ice and stored frozen (−70° C.±10° C.).
Rat plasma and tissue samples were extracted with 9 volumes of acetone containing 100 ng/mL of the internal standard (Compound 2) and analysed by HPLC/MS/MS as described in Gourdeau et al (Cancer Chemother Pharmacol vol 61 pp. 911-921).

[4] = tested on: ovarian carcinoma tumor cell lines; assay: NCI panel, ovarian carcinoma; format: cell-based; conditions: Homo sapiens; read-out: GI50 range, ovarian carcinoma
From the text: as §3

[5] = tested on: breast carcinoma tumor cell lines; assay: NCI panel, breast carcinoma; format: cell-based; conditions: Homo sapiens; read-out: GI50 range, breast carcinoma
From the text: as §3

[6] = tested on: U87 glioma cells and HVMEC-B; assay: Fluorimetric caspase-3 activity, U87 glioma versus brain endothelial cells; format: cell-based, human; conditions: 0-30 μM, 18 hours
Protocol: To test the effect of Compound 1 on caspase 3 activity in endothelial cells, the following experiment was conducted. HVMEC-B and U87 glioma cells were treated with increasing concentrations of Compound 1 (0-30 μM) in serum-free media for 18 hours. Fluorimetric caspase-3 activity assay was performed as follows: cells were grown to about 60% confluence in 6-well dishes and treated with increasing concentrations of Compound 1 for 18 hours. Cells were then collected and washed in ice-cold PBS pH 7.0. Cells were subsequently lysed in Apo-Alert lysis buffer (Clontech, Palo Alto, Calif.) for 1 hr at 4° C. and the lysates were clarified by centrifugation. Caspase-3 activity was determined by incubation with 50 μM caspase-3-specific fluorogenic peptide substrate acetyl-Asp-Glu-Val-Asp-7-amino-4-trifluoromethylcoumarin (Ac-DEVD-AFC) in 96-well plates. The release of AFC was monitored for at least 30 min at 37° C. on a fluorescence plate reader (Molecular Dynamics (Amersham Biosciences Inc, Sunnyvale, Calif.)) (λex=400 nm, λem=505 nm).

| SMILES | IC50 (PBR) | % T/C at 10 μM, MES-SA/DX5 (MES-SA/DX5) | % T/C at 10 μM, MES-SA (MES-SA) | % T/C at 10 μM, MDA-MB-231 (MDA-MB-231) | % T/C at 10 μM, MCF-7 (MCF-7) | Hemolysis ED50 (concentration necessary to achieve 50% hemolysis of SRBC) (SRBC) | increase in caspase-3 activation (U87 parental) | cytotoxic activity in the NCI panel [1] | GI50 [2] | concentration at 60 min ([3]; Sprague-Dawley, liver, intravenous, read-out: concentration in liver) | concentration at 60 min ([3]; Sprague-Dawley, plasma, intravenous, read-out: concentration in plasma) | Kp at 60 min ([3]; Sprague-Dawley, tumor / plasma, intravenous, read-out: tumor compared to plasma) | concentration at 60 min ([3]; Sprague-Dawley, tumor, intravenous, read-out: accumulation in the tumor) | tumor compared to liver ([3]; in vivo) | GI50 [4] | GI50 [5] | caspase-3 activity of U87 glioma cells compared to normal human brain endothelial cells [6] |
| --- | --- | --- | --- | --- | --- | --- | --- | --- | --- | --- | --- | --- | --- | --- | --- | --- | --- |
| CC(C)=CCC/C(C)=C/CC/C(C)=C/CN1C(=O)c2cccc(O)c2Nc2c1cc(O)c(Br)c2O [Compound 97] | 2600 nM | 83% | 80% | 68% | 28% | 15.1 µg/mL | – | – | – | – | – | – | – | – | – | – | – |
| CC(C)=CCC/C(C)=C/CC/C(C)=C/CN1C(=O)c2cccc(O)c2Nc2c(O)cc(O)cc21 [Compound 1, 10-farnesyl-4,6,8-trihydroxy-5,10-dihydrodibenzo[b,e][1,4]diazepin-11-one] | – | – | – | – | – | 7.6 µg/mL | approximately 15 fold | broad cytotoxic activity in the low micromolar range | 3000 to 17300 nM | 24800 ng/g | 16200 ng/g | 11 | 176 µg/mL | 7 fold | 2500 to 6200 nM | 1400 to 16300 nM | 2-3 fold |

Reference: patent US20110028458A1, “INHIBITION OF CELL MIGRATION BY A FARNESYLATED DIBENZODIAZEPINONE” (THALLION PHARMACEUTICALS INC., priority 2008, published 2011)
